Structures can show the parent of a compound that is named as a salt.
Experiments:
[1] = biological target: His-tagged human recombinant kinase full-length Akt2 (Homo sapiens (Human), UniProt P31751); test: Akt2 kinase assay (TR-FRET); type: biochemical; conditions: 10 μM ATP; median
Excerpt: Akt2 inhibitory activity of compounds of the present invention was quantified employing the Akt2 TR-FRET assay as described in the following paragraphs.
(§1) His-tagged human recombinant kinase full-length Akt2 expressed in insect cells and activated by PDK1 was purchased form Invitrogen (part number PV 3975). As substrate for the kinase reaction the biotinylated peptide biotin-Ahx-[…] (C-terminus in amide form) was used which can be purchased e.g. from the company Biosynthan GmbH (Berlin-Buch, Germany).
(§2) For the assay 50 nl of a 100 fold concentrated solution of the test compound in DMSO was pipetted into a black low volume 384 well microtiter plate (Greiner Bio-One, Frickenhausen, Germany), 2 μl of a solution of Akt2 in assay buffer [50 mM TRIS/HCl pH 7.5, 5 mM MgCl2, 1 mM dithiothreitol, 0.02% (v/v) Triton X-100 (Sigma)] were added and the mixture was incubated for 15 min at 22° C. to allow pre-binding of the test compounds to the enzyme before the start of the kinase reaction. Then the kinase reaction was started by the addition of 3 μl of a solution of adenosine-tri-phosphate (ATP, 16.7 μM=>final conc. in the 5 μl assay volume is 10 μM) and substrate (1.67 μM=>final conc. in the 5 μl assay volume is 1 μM) in assay buffer and the resulting mixture was incubated for a reaction time of 60 min at 22° C. The concentration of Akt2 in the assay was adjusted depending of the activity of the enzyme lot and was chosen appropriate to have the assay in the linear range, typical enzyme concentrations were in the range of about 0.2 ng/μl (final conc. in the 5 μl assay volume).
(§3) The reaction was stopped by the addition of 5 μl of a solution of HTRF detection reagents (200 nM streptavidine-XL665 [Cisbio] and 1.5 nM anti-phosho-Serine antibody [Millipore, cat. #35-001] and 0.75 nM LANCE Eu-W 1024 labeled anti-mouse IgG antibody [Perkin Elmer]) in an aqueous EDTA-solution (100 mM EDTA, 0.1%/w/v\ bovine serum albumin in 50 mM HEPES/NaOH pH 7.5).
(§4) The resulting mixture was incubated 1 h at 22° C. to allow the binding of the biotinylated phosphorylated peptide to the streptavidine-XL665 and the antibodies. Subsequently the amount of phosphorylated substrate was evaluated by measurement of the resonance energy transfer from the anti-mouse-IgG-Eu-Chelate to the streptavidine-XL665. Therefore, the fluorescence emissions at 620 nm and 665 nm after excitation at 350 nm was measured in a TR-FRET reader, e.g. a Rubystar (BMG Labtechnologies, Offenburg, Germany) or a Viewlux (Perkin-Elmer). The ratio of the emissions at 665 nm and at […] was taken as the measure for the amount of phosphorylated substrate. The data were normalised (enzyme reaction without inhibitor=0% inhibition, all other assay components but no enzyme=100% inhibition).

[2] = test system: phospho-AKT at S473 in KPL4 breast tumour cell line; test: Cellular p-AKT1/2/3-S473 assay; type: cell-based; conditions: KPL4 cells, 2 hours treatment; median; read-out: pAKT-S743 median IC50
Procedure: The molecular mechanism of action was investigated in a set of experiments to assess the inhibition of the PI3K-AKT-mTOR pathway in responsive cell lines such as KPL4 breast tumour cell line (PIK3CAH1047R, HER2O/E and hormone independent). The phospho-substrates of PI3K-AKT-mTOR axis were used as the read-outs to reflect pathway inhibition. Cells were seeded at 60-80% confluency per well in 96-well cell culture plates. After overnight incubation at 37° C. 5% CO2, cells were treated with compounds and vehicle at 37° C. for 2 hours. […] All measurements where at least done in duplicates and confirmed by independent repetition.
Alternatively pAKT-S473 was measured using the “Akt Duplex” of the MULTI-SPOT® Assay System (Fa. Meso Scale Discovery, Cat# N41100B-1) following manufacturers instructions. Each assay used 20 μg of protein extract and measured total AKT and p-AKT content simultaneously in one well. All measurements where at least done in duplicates and confirmed by independent repetition. Values for P-AKT are expressed as percentage of P-AKT level compared to total-AKT content of the extracts.

[3] = biological target: His-tagged human recombinant kinase full-length Akt1 (Homo sapiens (Human), UniProt P31749); test: Akt1 kinase assay (TR-FRET); type: biochemical; conditions: 10 μM ATP; median
Excerpt: as §1, with “Akt1 inhibitory activity of compounds of the present invention was quantified employing the Akt1 TR-FRET assay as described in the following paragraphs. His-tagged” for “His-tagged”, “Akt1” for “Akt2”, “cells” for “cells and activated by PDK1”, “3599).” for “3975).”
as §2, with “Akt1” for “Akt2”, “0.05” for “0.2”
as §3, with “0.1% (w/v)” for “0.1%/w/v\”
as §4, with “HTRF” for “TR-FRET”

[4] = test system: KPL-4 cells; test: Tumor cell proliferation assay (CellTiter-Glo); type: cell-based; conditions: KPL4; 72 h drug exposure
Procedure: Compounds were tested in a cell-based assay that measures the capacity of the compounds to inhibit tumour cell proliferation following a 72 h drug exposure. Cell viability is determined using CellTiter-Glow® (CTG, Promega, cat# G757112/3). The CellTiter-Glo® Luminescent Cell Viability Assay is a homogeneous method to determine the number of viable cells in culture. Detection is based on using the luciferase reaction to measure the amount of ATP from viable cells. The amount of ATP in cells correlates with cell viability. Within minutes after a loss of membrane integrity, cells lose the ability to synthesize ATP, and endogenous ATPases destroy any remaining ATP; thus the levels of ATP fall precipitously.
Cells were plated at 3000-5000 cells/well (depending on the cell lines) in 90 μL growth medium on MTPs (Corning; #3603, black plate, clear flat bottom). For each cell line assayed, cells were plated onto a separate plate for determination of […] at t=0 hour and t=72 hour time points. Following overnight incubation at 37° C., chemiluminescence values for the t=0 samples were determined after adding 10 μl medium and 100 μl CTG solution according to manufacture protocol. Plates for the t=72 hour time points were treated with compounds diluted into growth medium at ten times final concentration added in 10 μL to the cell culture plate. Cells were then incubated for 72 hours at 37° C. Chemiluminescence values for the t=72 hour samples were determined. For data analysis, briefly, data from 24 h plate where used to reflect 100% inhibition of growth (“Ci”) and DMSO control for uninhibited growth (“C0”) and analyzed using MTS software package for IC50 and Hill coefficient. Experiments were controlled using a reference compound as standard.

His-tagged human recombinant kinase full-length Akt1, sequence (P31749 whole entry): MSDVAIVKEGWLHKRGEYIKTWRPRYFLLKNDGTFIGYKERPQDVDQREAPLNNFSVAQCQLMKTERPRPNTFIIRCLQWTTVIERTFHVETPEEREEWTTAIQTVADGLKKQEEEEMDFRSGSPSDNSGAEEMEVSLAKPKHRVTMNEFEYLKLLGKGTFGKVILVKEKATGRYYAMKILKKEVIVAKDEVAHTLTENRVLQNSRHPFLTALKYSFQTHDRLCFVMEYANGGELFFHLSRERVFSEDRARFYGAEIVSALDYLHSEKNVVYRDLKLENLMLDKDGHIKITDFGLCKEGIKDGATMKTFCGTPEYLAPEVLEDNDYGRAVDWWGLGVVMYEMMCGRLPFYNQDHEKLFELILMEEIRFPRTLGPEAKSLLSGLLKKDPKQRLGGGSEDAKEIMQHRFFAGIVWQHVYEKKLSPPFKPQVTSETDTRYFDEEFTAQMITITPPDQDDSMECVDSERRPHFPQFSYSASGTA
His-tagged human recombinant kinase full-length Akt2, sequence (P31751 whole entry): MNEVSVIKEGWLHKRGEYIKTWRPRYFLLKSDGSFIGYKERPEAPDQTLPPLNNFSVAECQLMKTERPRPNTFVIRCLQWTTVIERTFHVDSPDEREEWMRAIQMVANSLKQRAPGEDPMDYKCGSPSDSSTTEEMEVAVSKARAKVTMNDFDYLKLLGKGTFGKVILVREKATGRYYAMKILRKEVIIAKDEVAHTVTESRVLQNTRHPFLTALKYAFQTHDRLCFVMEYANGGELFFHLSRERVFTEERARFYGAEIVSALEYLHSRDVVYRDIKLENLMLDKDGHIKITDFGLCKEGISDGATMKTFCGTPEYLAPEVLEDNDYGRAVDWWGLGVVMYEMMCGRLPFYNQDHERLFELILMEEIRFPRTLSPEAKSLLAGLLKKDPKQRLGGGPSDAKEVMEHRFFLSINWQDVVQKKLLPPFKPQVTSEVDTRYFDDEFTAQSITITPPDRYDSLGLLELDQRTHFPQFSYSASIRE

Structure (SMILES) | IC50 [1] [nM] | IC50 [2] [nM] | IC50 [3] [nM] | IC50 [4] [nM]
Cc1nc2cc(-c3ccccc3)c(-c3ccc(C4(N)CCC4)cc3)nn2c1-c1ccn[nH]1 [Example 5-5, 1-{4-[2-Methyl-7-phenyl-3-(2H-pyrazol-3-yl)-imidazo[1,2-b]pyridazin-6-yl]-phenyl}-cyclobutylamine] | 5230 | 4110 | 2730 | 3690
N#Cc1cccc(-c2cnc3cc(-c4ccccc4)c(-c4ccc(C5(N)CCC5)cc4)nn23)c1 [Example 3-0, 3-{6-[4-(1-Amino-cyclobutyl)-phenyl]-7-phenyl-imidazo[1,2-b]pyridazin-3-yl}-benzonitrile] | 82 | 1550 | 5 | 1710
C=Cc1c(C)nc2cc(-c3ccccc3)c(-c3ccc(C4(N)CCC4)cc3)nn12 [Example 12-0, 1-[4-(2-Methyl-7-phenyl-3-vinyl-imidazo[1,2-b]pyridazin-6-yl)-phenyl]-cyclobutylamine] | 16700 | 10000 | 8940 | 3200
NC1(c2ccc(-c3nn4c(-c5cccc(CO)c5)cnc4cc3-c3ccccc3)cc2)CCC1 [Example 4-5, (3-{6-[4-(1-Amino-cyclobutyl)-phenyl]-7-phenyl-imidazo[1,2-b]pyridazin-3-yl}-phenyl)-methanol] | 37 | 30 | 6 | 1310
NC(=O)c1ccc(-c2cnc3cc(-c4ccccc4)c(-c4ccc(C5(N)CCC5)cc4)nn23)cc1 [Example 4-10, 4-{6-[4-(1-Amino-cyclobutyl)-phenyl]-7-phenyl-imidazo[1,2-b]pyridazin-3-yl}-benzamide hydrochloride] | 118 | 70 | 27 | 1260
Cc1nc2cc(-c3ccccc3)c(-c3ccc(C4(N)CCC4)cc3)nn2c1-c1ccc(C(N)=O)cc1 [Example 5-4, 4-{6-[4-(1-Amino-cyclobutyl)-phenyl]-2-methyl-7-phenyl-imidazol[1,2-b]pyridazin-3-yl}-benzamide] | 4820 | 10000 | 12100 | 2380
CCOC(=O)c1cncc(-c2cnc3cc(-c4ccccc4)c(-c4ccc(C5(N)CCC5)cc4)nn23)c1 [Example 4-17, 5-{6-[4-(1-Amino-cyclobutyl)-phenyl]-7-phenyl-imidazo[1,2-b]pyridazin-3-yl}-nicotinic acid ethyl ester] | 110 | 60 | 7 | 6200
NC1(c2ccc(-c3nn4c(Br)cnc4cc3-c3ccccc3)cc2)CCC1 [Example 4-8, 1-[4-(3-Bromo-7-phenyl-imidazo[1,2-b]pyridazin-6-yl)-phenyl]-cyclobutylamine hydrochloride] | 264 | 110 | 74 | 2380
NC1(c2ccc(-c3nn4c(-c5ccc(F)cc5)c(Cl)nc4cc3-c3ccccc3)cc2)CCC1 [Example 7-0, 1-{4-[2-Chloro-3-(4-fluorophenyl)-7-phenyl-imidazo[1,2-b]pyridazin-6-yl]-phenyl}-cyclobutylamine] | 106 | 610 | 99 | 3030
NC1(c2ccc(-c3nn4c(-c5ccc(F)cc5)c(Br)nc4cc3-c3ccccc3)cc2)CCC1 [Example 6-0, 1-{4-[2-Bromo-3-(4-fluorophenyl)-7-phenyl-imidazo[1,2-b]pyridazin-6-yl]-phenyl}-cyclobutylamine] | 41 | 410 | 68 | 1890
NC(=O)/C=C/c1cnc2cc(-c3ccccc3)c(-c3ccc(C4(N)CCC4)cc3)nn12 [Example 8-0, (E)-3-{6-[4-(1-Amino-cyclobutyl)-phenyl]-7-phenyl-imidazo[1,2-b]pyridazin-3-yl}-acrylamide] | 222 | 50 | 38 | 2420
Cc1cn2nc(-c3ccc(C4(N)CCC4)cc3)c(-c3ccccc3)cc2n1 [Example 1-1, 1-[4-(2-Methyl-7-phenyl-imidazo[1,2-b]pyridazin-6-yl)-phenyl]-cyclobutylamine hydrochloride] | 20000 | 10000 | 17300 | 10000
